The values below come from US12673961B2 (Agios Pharmaceuticals, Inc., priority 2022, dated 2026).

Molecules are shown by their SMILES. Some results are limits rather than exact numbers.

The target in the assay is T1, human PAH with the R408W mutation (Homo sapiens, UniProt P00439, R408W).
T1 construct: expressed in transfected cells
T1 sequence (P00439 1-452 R408W): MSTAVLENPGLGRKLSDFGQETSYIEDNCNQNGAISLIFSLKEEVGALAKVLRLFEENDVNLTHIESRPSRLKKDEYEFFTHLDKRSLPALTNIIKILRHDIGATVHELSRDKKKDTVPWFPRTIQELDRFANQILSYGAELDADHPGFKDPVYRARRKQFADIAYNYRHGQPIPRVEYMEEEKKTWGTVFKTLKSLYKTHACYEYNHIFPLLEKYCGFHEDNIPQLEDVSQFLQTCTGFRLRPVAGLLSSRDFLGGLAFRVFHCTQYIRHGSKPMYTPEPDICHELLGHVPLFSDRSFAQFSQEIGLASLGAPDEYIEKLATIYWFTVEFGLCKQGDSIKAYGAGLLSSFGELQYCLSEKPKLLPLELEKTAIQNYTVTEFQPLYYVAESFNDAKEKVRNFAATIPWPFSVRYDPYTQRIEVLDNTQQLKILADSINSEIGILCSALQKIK
Briefly: Cell Based Phenylalanine Flux Assay.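 Note: Ten-point dose curve from 2-fold serial dilutions, run in duplicate at 0.5% DMSO final, tracer step used 20 µM sepiapterin and 800 µM labeled phenylalanine.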 The following applies: A375 cells expressing human R408W PAH; 24 hrs with compound, then sepiapterin and 13C9,15N-Phenylalanine for 4 hours; 13C-Tyrosine by LC-MS; average where tested multiple times; read-out: AC50.
By AC50 is commonly meant the concentration at which the activity in the assay is half-maximal. As to `Cc1ncccc1-c1nnc(N2CCc3[nH]cnc3[C@H]2c2cc3c(C(F)(F)F)cccn3n2)o1` [Example 2208, (S)-2-(2-methylpyridin-3-yl)-5-(4-(4-(trifluoromethyl)pyrazolo [1,5-a]pyridin-2-yl)-1,4,6,7-tetrahydro-5H-imidazo [4,5-c]pyridin-5-yl)-1,3,4-oxadiazole], the AC50 fell in the range of 500 to 1000 nM.

Take `Cc1ncccc1-c1nnc(N2CCc3[nH]cnc3[C@H]2c2cc3c(C(F)F)cccn3n2)o1` [Example 2210, (S)-2-(4-(4-(difluoromethyl)pyrazolo[1,5-a]pyridin-2-yl)-1,4,6,7-tetrahydro-5H-imidazo [4,5-c]pyridin-5-yl)-5-(2-methylpyridin-3-yl)-1,3,4-oxadiazole]: the concentration at half-maximal activity (AC50) is 1000 to 5000 nM.

Turning to `Cc1ncccc1-c1nnc(N2CCc3[nH]cnc3[C@H]2c2cc3c(F)cccn3n2)o1` [Example 2212, (S)-2-(4-(4-fluoropyrazolo [1,5-a]pyridin-2-yl)-1,4,6,7-tetrahydro-5H-imidazo [4,5-c]pyridin-5-yl)-5-(2-methylpyridin-3-yl)-1,3,4-oxadiazole], the concentration at half-maximal activity (AC50) is < 500 nM.

As to `Cc1ncccc1-c1nnc(N2CCc3[nH]cnc3[C@@H]2c2cc3c(F)cccn3n2)o1` [Example 2213, (R)-2-(4-(4-fluoropyrazolo [1,5-a]pyridin-2-yl)-1,4,6,7-tetrahydro-5H-imidazo [4,5-c]pyridin-5-yl)-5-(2-methylpyridin-3-yl)-1,3,4-oxadiazole], the AC50 is > 5000 nM.

As for `Cc1cccn2nc([C@@H]3c4nc[nH]c4CCN3C(=O)c3nc(C(F)F)nn3C)cc12` [Example 2214, (S)-(3-(difluoromethyl)-1-methyl-1H-1,2,4-triazol-5-yl)(4-(4-methylpyrazolo[1,5-a]pyridin-2-yl)-6,7-dihydro-1H-imidazo[4,5-c]pyridin-5(4H)-yl)methanone], the AC50 is < 500 nM.

As to `CC(C)(O)c1ncc(C(=O)N2CCc3[nH]cnc3[C@H]2c2cc3c(Cl)cccn3n2)o1` [Example 2216], the concentration at half-maximal activity (AC50) was in the range of 500 to 1000 nM.

Take `Cc1nnc(C(=O)N2CCc3[nH]cnc3[C@H]2c2cc3c(OC(F)(F)F)cccn3n2)o1` [Example 2218, (S)-(5-methyl-1,3,4-oxadiazol-2-yl)(4-(4-(trifluoromethoxy)pyrazolo [1,5-a]pyridin-2-yl)-6,7-dihydro-1H-imidazo[4,5-c]pyridin-5(4H)-yl)methanone]: the concentration at half-maximal activity (AC50) lay within 1000 to 5000 nM.

Regarding `Cc1nnc(C(=O)N2CCc3[nH]cnc3[C@@H]2c2cc3c(OC(F)(F)F)cccn3n2)o1` [Example 2219, (R)-(5-methyl-1,3,4-oxadiazol-2-yl)(4-(4-(trifluoromethoxy)pyrazolo [1,5-a]pyridin-2-yl)-6,7-dihydro-1H-imidazo[4,5-c]pyridin-5(4H)-yl)methanone], the half-maximal activity concentration (AC50) was > 5000 nM.

Take `CC1(c2nnc(N3CCc4[nH]cnc4[C@@H]3c3cc4c(C5CC5)cccn4n3)o2)CC1` [Example 2226, (R)-2-(4-(4-cyclopropylpyrazolo [1,5-a]pyridin-2-yl)-1,4,6,7-tetrahydro-5H-imidazo [4,5-c]pyridin-5-yl)-5-(1-methylcyclopropyl)-1,3,4-oxadiazole]: the AC50 is > 5000 nM.

Take `CC1(c2nnc(N3CCc4[nH]cnc4[C@H]3c3cc4c(C5CC5)cccn4n3)o2)CC1` [Example 2227, (S)-2-(4-(4-cyclopropylpyrazolo [1,5-a]pyridin-2-yl)-1,4,6,7-tetrahydro-5H-imidazo [4,5-c]pyridin-5-yl)-5-(1-methylcyclopropyl)-1,3,4-oxadiazole]: the concentration at half-maximal activity (AC50) fell in the range of 500 to 1000 nM.

For `CC(C)c1cccn2nc([C@H]3c4nc[nH]c4CCN3c3nnc(C4(C)CC4)o3)cc12` [Example 2228, (R)-2-(4-(4-isopropylpyrazolo [1,5-a]pyridin-2-yl)-1,4,6,7-tetrahydro-5H-imidazo [4,5-c]pyridin-5-yl)-5-(1-methylcyclopropyl)-1,3,4-oxadiazole], the AC50 is > 5000 nM.

Consider `CC(C)c1cccn2nc([C@@H]3c4nc[nH]c4CCN3c3nnc(C4(C)CC4)o3)cc12` [Example 2229, (S)-2-(4-(4-isopropylpyrazolo [1,5-a]pyridin-2-yl)-1,4,6,7-tetrahydro-5H-imidazo [4,5-c]pyridin-5-yl)-5-(1-methylcyclopropyl)-1,3,4-oxadiazole], for which the half-maximal activity concentration (AC50) is < 500 nM.

Consider `CC(C)c1cccn2nc([C@H]3c4nc[nH]c4CCN3c3nnc(C(C)(F)F)o3)cc12` [Example 2230, (R)-2-(1,1-difluoroethyl)-5-(4-(4-isopropylpyrazolo[1,5-a]pyridin-2-yl)-1,4,6,7-tetrahydro-5H-imidazo[4,5-c]pyridin-5-yl)-1,3,4-oxadiazole], for which the half-maximal activity concentration (AC50) is > 5000 nM.

Consider `CC(F)(F)c1nnc(N2CCc3[nH]cnc3[C@@H]2c2cc3c(Cl)cccn3n2)o1` [Example 2232, (R)-2-(4-(4-chloropyrazolo [1,5-a]pyridin-2-yl)-1,4,6,7-tetrahydro-5H-imidazo [4,5-c]pyridin-5-yl)-5-(1,1-difluoroethyl)-1,3,4-oxadiazole], for which the AC50 is > 5000 nM.

Regarding `CC(F)(F)c1nnc(N2CCc3[nH]cnc3[C@H]2c2cc3c(Cl)cccn3n2)o1` [Example 2233, (S)-2-(4-(4-chloropyrazolo [1,5-a]pyridin-2-yl)-1,4,6,7-tetrahydro-5H-imidazo [4,5-c]pyridin-5-yl)-5-(1,1-difluoroethyl)-1,3,4-oxadiazole], the concentration at half-maximal activity (AC50) was < 500 nM.

Take `Cc1ncccc1-c1nnc(N2CCc3[nH]cnc3[C@@H]2c2cc3c(Cl)cccn3n2)o1` [Example 2237, (R)-2-(4-(4-chloropyrazolo [1,5-a]pyridin-2-yl)-1,4,6,7-tetrahydro-5H-imidazo [4,5-c]pyridin-5-yl)-5-(2-methylpyridin-3-yl)-1,3,4-oxadiazole]: the AC50 is > 5000 nM.

For `O=C(c1cnc(-c2cnccn2)o1)N1CCc2[nH]cnc2[C@H]1c1cc2c(C(F)F)cccn2n1` [Example 2242, (S)-(4-(4-(difluoromethyl)pyrazolo[1,5-a]pyridin-2-yl)-1,4,6,7-tetrahydro-5H-imidazo [4,5-c]pyridin-5-yl)(2-(pyrazin-2-yl)oxazol-5-yl) methanone], the AC50 fell in the range of 500 to 1000 nM.

In the case of `O=C(c1cnc(-c2cnccn2)o1)N1CCc2[nH]cnc2[C@@H]1c1cc2c(C(F)F)cccn2n1` [Example 2243], the half-maximal activity concentration (AC50) is > 5000 nM.

Consider `FC(F)c1nnc(N2CCc3[nH]cnc3[C@H]2c2cc3c(OC(F)(F)F)cccn3n2)o1` [Example 2251, (S)-2-(difluoromethyl)-5-(4-(4-(trifluoromethoxy)pyrazolo [1,5-a]pyridin-2-yl)-1,4,6,7-tetrahydro-5H-imidazo [4,5-c]pyridin-5-yl)-1,3,4-oxadiazole], for which the concentration at half-maximal activity (AC50) is < 500 nM.

With `FC(F)(F)Oc1cccn2nc([C@H]3c4nc[nH]c4CCN3c3nnc(C(F)(F)F)o3)cc12` [Example 2252, (R)-2-(4-(4-(trifluoromethoxy)pyrazolo[1,5-a]pyridin-2-yl)-1,4,6,7-tetrahydro-5H-imidazo[4,5-c]pyridin-5-yl)-5-(trifluoromethyl)-1,3,4-oxadiazole], the AC50 was 500 to 1000 nM.

Take `CC1(c2nnc(N3CCc4[nH]cnc4[C@@H]3c3cc4c(Cl)cccn4n3)o2)CC1` [Example 2258, (R)-2-(4-(4-chloropyrazolo [1,5-a]pyridin-2-yl)-1,4,6,7-tetrahydro-5H-imidazo [4,5-c]pyridin-5-yl)-5-(1-methylcyclopropyl)-1,3,4-oxadiazole]: the AC50 was > 5000 nM.

Turning to `CC(C)c1cccn2nc([C@@H]3c4nc[nH]c4CCN3c3nnc(-c4cccnc4)o3)cc12` [Example 2261, (S)-2-(4-(4-isopropylpyrazolo [1,5-a]pyridin-2-yl)-1,4,6,7-tetrahydro-5H-imidazo [4,5-c]pyridin-5-yl)-5-(pyridin-3-yl)-1,3,4-oxadiazole], the half-maximal activity concentration (AC50) is 500 to 1000 nM.

Consider `Clc1cccn2nc([C@@H]3c4nc[nH]c4CCN3c3nnc(-c4cccnc4)o3)cc12` [Example 2262, (S)-2-(4-(4-chloropyrazolo [1,5-a]pyridin-2-yl)-1,4,6,7-tetrahydro-5H-imidazo[4,5-c]pyridin-5-yl)-5-(pyridin-3-yl)-1,3,4-oxadiazole], for which the AC50 fell in the range of 500 to 1000 nM.

With `Clc1cccn2nc([C@H]3c4nc[nH]c4CCN3c3nnc(-c4cccnc4)o3)cc12` [Example 2263, (R)-2-(4-(4-chloropyrazolo [1,5-a]pyridin-2-yl)-1,4,6,7-tetrahydro-5H-imidazo[4,5-c]pyridin-5-yl)-5-(pyridin-3-yl)-1,3,4-oxadiazole], the concentration at half-maximal activity (AC50) was > 5000 nM.

As for `Cc1cccn2nc([C@@H]3c4nc[nH]c4CCN3c3nnc(-c4cccnc4F)o3)cc12` [Example 2264, (S)-2-(2-fluoropyridin-3-yl)-5-(4-(4-methylpyrazolo[1,5-a]pyridin-2-yl)-1,4,6,7-tetrahydro-5H-imidazo[4,5-c]pyridin-5-yl)-1,3,4-oxadiazole], the AC50 fell in the range of 500 to 1000 nM.

Regarding `Cc1cccn2nc([C@H]3c4nc[nH]c4CCN3c3nnc(-c4cccnc4F)o3)cc12` [Example 2265, (R)-2-(2-fluoropyridin-3-yl)-5-(4-(4-methylpyrazolo[1,5-a]pyridin-2-yl)-1,4,6,7-tetrahydro-5H-imidazo[4,5-c]pyridin-5-yl)-1,3,4-oxadiazole], the AC50 was > 5000 nM.

Turning to `FC(F)Oc1cccn2nc([C@@H]3c4nc[nH]c4CCN3c3ccc(C(F)(F)F)cn3)cc12` [Example 2272, (S)-4-(4-(difluoromethoxy)pyrazolo[1,5-a]pyridin-2-yl)-5-(5-(trifluoromethyl)pyridin-2-yl)-4,5,6,7-tetrahydro-1H-imidazo[4,5-c]pyridine], the AC50 is < 500 nM.
